Experiment: Long-term storage of the active ingredient as a liquid eye drop (impurity formation)
Type: physicochemical
Excerpt: The present invention is to provide a composition capable of providing an eye drop treatment for various eye diseases. For this purpose, the composition has the essential condition of securing the stability of the active ingredient in a liquid state as an eye drop for about six months or more. […] And as a result of confirming a structure of the corresponding impurity, it was confirmed that the impurity is 3-phenyl-4-propyl-1-(N-oxopyridin-2-yl)-1H-pyrazol-5-ol (hereinafter, N-oxopyridine compound), in which an N-oxide structure is formed in a pyridine structure of the active ingredient. If the pH condition is adjusted to a neutral region where the active ingredient is stable, most impurities are controlled to be within about 0.5%. However, it was confirmed that the N-oxopyridine compound drastically increases to a level exceeding about 30% with a decrease in the active ingredient content even when the pH is controlled.

level of N-oxopyridine compound (liquid eye drop stored about six months or more, long-term storage condition, pH controlled to neutral region): exceeding 30%
most impurities (other than N-oxopyridine compound) (liquid eye drop, pH adjusted to a neutral region): ≤ 0.5%
Structure (SMILES): CCCc1c(-c2ccccc2)nn(-c2ccccn2)c1O [3-phenyl-4-propyl-1-(pyridin-2-yl)-1H-pyrazol-5-ol]

From US20250281472A1, “OPHTHALMIC COMPOSITION INHIBITING OCCURRENCE OF N-OXOPYRIDINE COMPOUND FOR PREVENTING OR TREATING EYE DISEASE” (Samjin Pharmaceutical Co., Ltd., priority 2021, published 2025)
